Results published in patent publication US20130131321A1, “LIGANDS FOR ANTIBODY AND Fc-FUSION PROTEIN PURIFICATION BY AFFINITY CHROMATOGRAPHY” (GRAFFINITY PHARMACEUTICALS GMBH, priority 2010, published 2013).

Key:
[1] = Alkaline stability in sodium hydroxide, LC-MS; assay type: physicochemical; conditions: 25° C., 8 days
Description: It was either treated with 0.1 M or 0.5 M sodium hydroxide at 25° C. Hydrolysis was monitored by LC-MS analysis.

[2] = system: Palivizumab; experiment: Microtiter plate chromatography of resins, Palivizumab (bound, yield); assay type: binding, humanized
[3] = system: Tocilizumab; experiment: Microtiter plate chromatography of resins, Tocilizumab (bound, yield); assay type: binding, humanized
[4] = system: Bevacizumab Fab fragment; experiment: Microtiter plate chromatography of resins, Bevacizumab Fab fragment (bound); assay type: binding, humanized
Description: (§1) Resins were assessed in packed mode by microtiter plate chromatography. For each column, approximately 30 μl of resin were transferred to a 384-well filter plate and sealed with appropriate top frits.
(§2) Columns were equilibrated with 6.7 column volumes (cv) of phosphate buffered saline (0.15 M NaCl, 20 mM sodium phosphate, pH 7.3; PBS) prior to injection. Either 3.3 cv of whole IgGs dissolved at 0.75 mg ml^−1, Fab or Fc fragments dissolved at 0.25 mg ml^−1 (all three in PBS) or host cell proteins (HCP) were injected onto columns. Antibody fragments of Bevacizumab (Fab and Fc) were prepared by cleavage of whole IgG with papain protease (3) according to the protocol of the manufacturer. […] Volumes transferred were spun through columns at 50 g for 1-2 min. During injection of samples, acceleration was reduced to 10 g and centrifugation time increased to 5-10 min. Effluent fractions were collected in 384-well plates and concentrations of protein analyzed by Bradford assay. Protein masses mi, mft and me (see below) were calculated as the product of fraction volume and measured protein concentration.
(§3) The fraction of ‘bound’ protein was calculated as the difference between the total mass of protein injected mi and the mass of protein detected in the flowthrough mft, divided by the total mass of protein injected.
(§4) the fraction of ‘bound’ protein and the ‘yield’ of protein were calculated for each resin based on data for whole IgG-antibodies. In the case of Bevacizumab fragments and host cell proteins, only the fraction of ‘bound’ protein is given. Selectivity of resins was calculated from data for Bevacizumab Whole IgG and host cell proteins. Due to limited experimental precision, selectivity was truncated beyond values of 10.

[5] = system: Anti RhD IgG; experiment: SPR screening of chemical microarrays, Anti RhD IgG; assay type: binding; conditions: chemical microarray, immobilized ligand
From the text: (§5) Graffinity has developed high density chemical microarrays comprising thousands of small molecules immobilized onto gold chips. The arrays are constructed using maleimide-thiol coupling chemistry in combination with high density pintool spotting. For the construction, glass plates are microstructured by photolithographical methods in order to define up to 9,216 sensor fields per array. A subsequently applied gold coating provides the basis for the SPR effect and enables the formation of a binary, mixed self assembled monolayer (SAM) of two different thiols. […]
(§6) Surface plasmons are collective oscillations of electrons at a metal surface which can be resonantly excited by polarized light of appropriate wavelength and incidence angle. […] Processes which alter the local refractive index in close proximity to the metal surface (such as antibody binding to the immobilized ligands) can therefore be monitored sensitively. […] While scanning over a range of wavelengths covering the SPR resonance conditions, reflection images are recorded stepwise. […]
(§7) The experimental results of the microarray screening campaigns were analyzed by manual hit selection using in-house developed software routines as well as by an in-depth data analysis by commercially available data mining tools. […]

[6] = system: rabbit poly-IgGs; experiment: Microtiter plate chromatography of resins, rabbit poly-IgG; assay type: binding
Description: as §1, §2, §3
The ‘yield’ of protein was calculated as the mass of protein eluted me, divided by the mass of protein injected mi.
as §4

[7] = system: Bevacizumab Fab fragment; experiment: SPR screening of chemical microarrays, Bevacizumab Fab fragment; assay type: binding, humanized; conditions: chemical microarray, immobilized ligand
From the text: as §5, §6, §7

[8] = system: Palivizumab; experiment: SPR screening of chemical microarrays, Palivizumab; assay type: binding, humanized; conditions: chemical microarray, immobilized ligand
From the text: as §5, §6, §7

[9] = system: full length Bevacizumab; experiment: SPR screening of chemical microarrays, full length Bevacizumab; assay type: binding, humanized; conditions: chemical microarray, immobilized ligand
From the text: as §5, §6, §7

[10] = system: Bevacizumab Fc fragment; experiment: Microtiter plate chromatography of resins, Bevacizumab Fc fragment (bound); assay type: binding, humanized
Description: as §1, §2, §3, §4

[11] = system: Tocilicumab; experiment: SPR screening of chemical microarrays, Tocilizumab; assay type: binding, humanized; conditions: chemical microarray, immobilized ligand
From the text: as §5, §6, §7

[12] = system: Bevacizumab Fc fragment; experiment: SPR screening of chemical microarrays, Bevacizumab Fc fragment; assay type: binding, humanized; conditions: chemical microarray, immobilized ligand
From the text: as §5, §6, §7

In the case of `COc1ccc(NC(=O)c2cc(-c3ccco3)n(C)n2)cc1C(=O)NCCCN` [Ligand L1, 5-[5-(2-Furyl)-1-methylpyrazol-3-yl]carboxamido-2-methoxybenzoic acid N-(3-aminopropyl)amide], the “degradation (alkaline stability)” value ([1]; 0.1 M NaOH) was “no degradation”, the half-life ([1]; 0.5 M sodium hydroxide solution, 0.5 M NaOH) was 12 days and the “Palivizumab Bound (%)” value [2] was 100%. The “Palivizumab Yield (%)” value [2] was 92%, the “Tocilizumab Bound (%)” value [3] was 100% and the “Tocilizumab Yield (%)” value [3] was 97%. For the same molecule, the “Bevacizumab Fab Bound (%)” value ([4]; Bevacizumab Fab fragment) was 18%, the “binding of Bevacizumab Fab-fragment” value ([4]; Fab 0.25 mg ml^-1 in PBS) was “not the Fab-fragment” and the “SPR binding to full length Anti RhD IgG” value [5] was “clearly bound”. The “r-poly-IgG Bound (%)” value [6] was 100%, the “r-poly-IgG Yield (%)” value [6] was 100% and the “binding of rabbit poly-IgGs” value ([6]; microtiter plate chromatography, PBS) was “efficient binding”. For the same molecule, the “SPR binding to Bevacizumab Fab fragment” value [7] was “only minor binding”, the “SPR binding to full length Palivizumab” value [8] was “clearly bound” and the “SPR binding to full length Bevacizumab” value [9] was “distinct binding”. The “Bevacizumab Fc Bound (%)” value ([10]; Bevacizumab Fc fragment) was 100%, the “binding of Bevacizumab Fc-fragment” value ([10]; Fc 0.25 mg ml^-1 in PBS) was “bound the Fc-fragment” and the “SPR binding to full length Tocilicumab” value [11] was “clearly bound”. For the same molecule, the “SPR binding to Bevacizumab Fc fragment” value [12] was “distinct binding”.
